≈ marks a conversion by molar mass, not a printed value.
Columns and labels:
[1] = test system: clinically isolated MDR, XDR, and TDR M. tuberculosis strains; assay: microbe, parasite or virus in culture; type: cell-based; conditions: Mycobacterium tuberculosis
[2] = test system: M. abscessus; assay: microbe, parasite or virus in culture; type: cell-based, Mycobacterium abscessus; conditions: Mycobacteroides abscessus
[3] = test system: M. avium; assay: microbe, parasite or virus in culture; type: cell-based; conditions: Mycobacterium avium
[4] = test system: M. bolletii; assay: microbe, parasite or virus in culture; type: cell-based, Mycobacterium bolletii; conditions: Mycobacteroides abscessus
[5] = test system: M. conceptionense; assay: microbe, parasite or virus in culture; type: cell-based, Mycobacterium conceptionense; conditions: Mycolicibacterium senegalense
[6] = test system: M. fortuitum; assay: microbe, parasite or virus in culture; type: cell-based, Mycobacterium fortuitum; conditions: Mycolicibacterium fortuitum
[7] = test system: M. gilvum; assay: microbe, parasite or virus in culture; type: cell-based, Mycobacterium gilvum; conditions: Mycolicibacterium gilvum
[8] = test system: M. marinum; assay: microbe, parasite or virus in culture; type: cell-based; conditions: Mycobacterium marinum
[9] = test system: M. peregrinum; assay: microbe, parasite or virus in culture; type: cell-based, Mycobacterium peregrinum; conditions: Mycolicibacterium peregrinum
[10] = test system: M. phlei; assay: microbe, parasite or virus in culture; type: cell-based, Mycobacterium phlei; conditions: Mycolicibacterium phlei
[11] = test system: M. phocaicum; assay: microbe, parasite or virus in culture; type: cell-based, Mycobacterium phocaicum; conditions: Mycolicibacterium phocaicum
[12] = test system: M. smegmatis; assay: microbe, parasite or virus in culture; type: cell-based, Mycobacterium smegmatis; conditions: Mycolicibacterium smegmatis
[13] = test system: M. szulgai; assay: microbe, parasite or virus in culture; type: cell-based; conditions: Mycobacterium szulgai
[14] = test system: Acinetobacter baumannii; assay: Broth dilution MIC (CLSI); type: cell-based
Description: (§1) Bacteria (Acinetobacter baumannii NCCP 14782, Citrobacter freundii NCCP 14766, Enterobacter aerogenes NCCP 14761, Escherichia coli NCCP 14762, Escherichia coli O157 NCCP 14541, Klebsiella pneumoniae NCCP 14764, Proteus mirabilis NCCP 14763, Proteus vulgaris NCCP 14765, Pseudomonas aeruginosa NCCP 14781, Salmonella Enteritidis NCCP 14771, Salmonella Paratyphi A NCCP 14759, Salmonella Typhimurium NCCP 16207, Serratia marcescens NCCP 14770, Shigella boydii NCCP 14745, Shigella dysenteriae NCCP 14746, Shigella flexneri NCCP 14744, Shigella sonnei NCCP 14773, Bacillus subtilis NCCP 11101, Corynebacterium diphtheriae NCCP 10353, Staphylococcus aureus MSSA NCCP 14780, Staphylococcus aureus MRSA NCCP 14769, Staphylococcus epidermidis NCCP 14768, Streptococcus pneumoniae NCCP 14774) and fungi (Aspergillus fumigatus NCCP 22454, Candida albicans NCCP 32557, Cryptococcus neoformans NCCP 32559, Microsporum canis NCCP 22454, Rhizopus oryzae NCCP 22458, Saccharomyces cerevisiae NCCP 32558, Trichophyton rubrum NCCP 22456) strains were obtained from the National Culture Collection for Pathogens (NCCP) (Chungbuk, Korea). The MIC of each agent was determined following the Clinical and Laboratory Standards Institute (CLSI).[40]

[15] = test system: Aspergillus fumigatus; assay: Broth dilution MIC (CLSI); type: cell-based
Description: as §1

[16] = test system: Bacillus subtilis; assay: Broth dilution MIC (CLSI); type: cell-based
Description: as §1

[17] = test system: Candida albicans; assay: Broth dilution MIC (CLSI); type: cell-based
Description: as §1

[18] = test system: Citrobacter freundii; assay: Broth dilution MIC (CLSI); type: cell-based
Description: as §1

[19] = test system: Corynebacterium diphtheriae; assay: Broth dilution MIC (CLSI); type: cell-based
Description: as §1

[20] = test system: Cryptococcus neoformans; assay: Broth dilution MIC (CLSI); type: cell-based
Description: as §1

[21] = test system: Enterobacter aerogenes; assay: Broth dilution MIC (CLSI); type: cell-based; conditions: Klebsiella aerogenes
Description: as §1

[22] = test system: Escherichia coli O157; assay: Broth dilution MIC (CLSI); type: cell-based
Description: as §1

[23] = test system: Escherichia coli; assay: Broth dilution MIC (CLSI); type: cell-based
Description: as §1

[24] = test system: Klebsiella pneumoniae; assay: Broth dilution MIC (CLSI); type: cell-based
Description: as §1

[25] = test system: Microsporum canis; assay: Broth dilution MIC (CLSI); type: cell-based
Description: as §1

[26] = test system: Proteus mirabilis; assay: Broth dilution MIC (CLSI); type: cell-based
Description: as §1

[27] = test system: Proteus vulgaris; assay: Broth dilution MIC (CLSI); type: cell-based
Description: as §1

[28] = test system: Pseudomonas aeruginosa; assay: Broth dilution MIC (CLSI); type: cell-based
Description: as §1

[29] = test system: Rhizopus oryzae; assay: Broth dilution MIC (CLSI); type: cell-based; conditions: Rhizopus arrhizus
Description: as §1

[30] = test system: Saccharomyces cerevisiae; assay: Broth dilution MIC (CLSI); type: cell-based
Description: as §1

[31] = test system: Salmonella Enteritidis; assay: Broth dilution MIC (CLSI); type: cell-based; conditions: Salmonella enterica, ENTERITIDIS
Description: as §1

[32] = test system: Salmonella Paratyphi A; assay: Broth dilution MIC (CLSI); type: cell-based; conditions: Salmonella enterica, PARATYPHI
Description: as §1

[33] = test system: Salmonella Typhimurium; assay: Broth dilution MIC (CLSI); type: cell-based; conditions: Salmonella enterica, TYPHIMURIUM
Description: as §1

[34] = test system: Serratia marcescens; assay: Broth dilution MIC (CLSI); type: cell-based
Description: as §1

[35] = test system: Shigella boydii; assay: Broth dilution MIC (CLSI); type: cell-based
Description: as §1

[36] = test system: Shigella dysenteriae; assay: Broth dilution MIC (CLSI); type: cell-based
Description: as §1

[37] = test system: Shigella flexneri; assay: Broth dilution MIC (CLSI); type: cell-based
Description: as §1

[38] = test system: Shigella sonnei; assay: Broth dilution MIC (CLSI); type: cell-based
Description: as §1

[39] = test system: Staphylococcus aureus, MRSA; assay: Broth dilution MIC (CLSI); type: cell-based
Description: as §1

[40] = test system: Staphylococcus aureus, MSSA; assay: Broth dilution MIC (CLSI); type: cell-based
Description: as §1

[41] = test system: Staphylococcus epidermidis; assay: Broth dilution MIC (CLSI); type: cell-based
Description: as §1

[42] = test system: Streptococcus pneumoniae; assay: Broth dilution MIC (CLSI); type: cell-based
Description: as §1

[43] = test system: Trichophyton rubrum; assay: Broth dilution MIC (CLSI); type: cell-based
Description: as §1

## CO[C@H]1/C=C/O[C@@]2(C)Oc3c(C)c(O)c4c(O)c(c(/C=N/N5CCN(C)CC5)c(O)c4c3C2=O)NC(=O)/C(C)=C\C=C\[C@H](C)[C@H](O)[C@@H](C)[C@@H](O)[C@@H](C)[C@H](OC(C)=O)[C@@H]1C [RIF, rifampicin, reference compound]
[1]; TDR-1
  MIC: > 100 µg/mL
[1]; TDR-2
  MIC: > 100 µg/mL
[1]; TDR-3
  MIC: > 100 µg/mL
[2]
  MIC: > 100 µg/mL
[3]
  MIC: 1.6 µg/mL (≈ 1.94 µM)
[4]
  MIC: > 100 µg/mL
[5]
  MIC: 25 µg/mL (≈ 30.4 µM)
[6]
  MIC: 0.2 µg/mL (≈ 0.243 µM)
[7]
  MIC: 0.2 µg/mL (≈ 0.243 µM)
[8]
  MIC: < 0.1 µg/mL
[9]
  MIC: 25 µg/mL (≈ 30.4 µM)
[10]
  MIC: 25 µg/mL (≈ 30.4 µM)
[11]
  MIC: 25 µg/mL (≈ 30.4 µM)
[12]
  MIC: 25 µg/mL (≈ 30.4 µM)
[13]
  MIC: < 0.1 µg/mL
[14]
  MIC: 3.1 µg/mL (≈ 3.77 µM)
[15]
  MIC: > 100 µg/mL
[16]
  MIC: < 0.1 µg/mL
[17]
  MIC: > 100 µg/mL
[18]
  MIC: 25 µg/mL (≈ 30.4 µM)
[19]
  MIC: 0.05 µg/mL (≈ 0.0608 µM)
[20]
  MIC: > 100 µg/mL
[21]
  MIC: 6.3 µg/mL (≈ 7.66 µM)
[22]
  MIC: 3.1 µg/mL (≈ 3.77 µM)
[23]
  MIC: 6.3 µg/mL (≈ 7.66 µM)
[24]
  MIC: 6.3 µg/mL (≈ 7.66 µM)
[25]
  MIC: > 100 µg/mL
[26]
  MIC: 3.1 µg/mL (≈ 3.77 µM)
[27]
  MIC: 6.3 µg/mL (≈ 7.66 µM)
[28]
  MIC: 25 µg/mL (≈ 30.4 µM)
[29]
  MIC: > 100 µg/mL
[30]
  MIC: > 100 µg/mL
[31]
  MIC: 12.5 µg/mL (≈ 15.2 µM)
[32]
  MIC: 12.5 µg/mL (≈ 15.2 µM)
[33]
  MIC: 12.5 µg/mL (≈ 15.2 µM)
[34]
  MIC: 12.5 µg/mL (≈ 15.2 µM)
[35]
  MIC: 0.4 µg/mL (≈ 0.486 µM)
[36]
  MIC: 1.6 µg/mL (≈ 1.94 µM)
[37]
  MIC: 1.5 µg/mL (≈ 1.82 µM)
[38]
  MIC: 3.1 µg/mL (≈ 3.77 µM)
[39]
  MIC: 0.05 µg/mL (≈ 0.0608 µM)
[40]
  MIC: 0.05 µg/mL (≈ 0.0608 µM)
[41]
  MIC: 0.05 µg/mL (≈ 0.0608 µM)
[42]
  MIC: 0.05 µg/mL (≈ 0.0608 µM)
[43]
  MIC: > 100 µg/mL

Reference: paper PMC9154192 (PLoS Biology, 2022)
